Test results reported in article PMC11003488 (Journal of Enzyme Inhibition and Medicinal Chemistry, 2023).
Like-named read-outs stand apart in the source and are kept apart here.

Legend:
TK-10 = assay: NCI-60 SRB growth inhibition, one-dose and five-dose; format: cell-based; details: Homo sapiens
OVCAR-8 = assay: as above; format: cell-based; details: Homo sapiens, OVCAR-8, read-out: percent growth inhibition
SN12C = assay: as above; format: cell-based; details: Homo sapiens
PC-3 = assay: as above; format: cell-based; details: Homo sapiens
KM12 = assay: as above; format: cell-based; details: Homo sapiens
Colon cancer cell lines = assay: NCI-60 SRB growth inhibition, subpanel; format: cell-based, human; details: for GI50: Homo sapiens
CNS cancer cell lines = assay: NCI-60 SRB growth inhibition, subpanel; format: cell-based, human; details: for GI50: Homo sapiens
[1] = tested on: Ovarian cancer cell lines; assay: NCI-60 SRB growth inhibition, subpanel; format: cell-based, human; details: for GI50: Homo sapiens
SK-OV-3 = assay: NCI-60 SRB growth inhibition, one-dose and five-dose; format: cell-based; details: Homo sapiens
U251 = assay: as above; format: cell-based; details: Homo sapiens
UACC-257 = assay: as above; format: cell-based; details: Homo sapiens
NCI-H23 = assay: as above; format: cell-based; details: Homo sapiens
HL-60(TB) = assay: cells; format: cell-based; details: Homo sapiens
Renal cancer cell lines = assay: NCI-60 SRB growth inhibition, subpanel; format: cell-based, human; details: for GI50: Homo sapiens
Melanoma cell lines = assay: NCI-60 SRB growth inhibition, subpanel; format: cell-based, human; details: for GI50: Homo sapiens
[2] = Cytotoxicity towards normal fibroblasts, safety index; format: cell-based, human; details: human, WI-38 normal fibroblast cells
[3] = tested on: WI-38 normal human fibroblast cells; assay: as above; format: cell-based; details: WI-38 versus cancer cell lines
RPMI-8226 = assay: NCI-60 SRB growth inhibition, one-dose and five-dose; format: cell-based; details: Homo sapiens
SW-620 = assay: as above; format: cell-based; details: Homo sapiens
MDA-MB-231/ATCC = assay: as above; format: cell-based; details: Homo sapiens, MDA-MB-231
Leukaemia cell lines = assay: NCI-60 SRB growth inhibition, subpanel; format: cell-based, human; details: for GI50: Homo sapiens
Breast cancer cell lines = assay: NCI-60 SRB growth inhibition, subpanel; format: cell-based, human; details: for GI50: Homo sapiens
SK-MEL-28 = assay: NCI-60 SRB growth inhibition, one-dose and five-dose; format: cell-based; details: Homo sapiens
EKVX = assay: as above; format: cell-based; details: Homo sapiens
Human VEGFR-2 = Human VEGFR-2 (Homo sapiens, UniProt P35968); assay: VEGFR-2 inhibition assay; format: biochemical
Chain of Human VEGFR-2 (P35968 20-1356): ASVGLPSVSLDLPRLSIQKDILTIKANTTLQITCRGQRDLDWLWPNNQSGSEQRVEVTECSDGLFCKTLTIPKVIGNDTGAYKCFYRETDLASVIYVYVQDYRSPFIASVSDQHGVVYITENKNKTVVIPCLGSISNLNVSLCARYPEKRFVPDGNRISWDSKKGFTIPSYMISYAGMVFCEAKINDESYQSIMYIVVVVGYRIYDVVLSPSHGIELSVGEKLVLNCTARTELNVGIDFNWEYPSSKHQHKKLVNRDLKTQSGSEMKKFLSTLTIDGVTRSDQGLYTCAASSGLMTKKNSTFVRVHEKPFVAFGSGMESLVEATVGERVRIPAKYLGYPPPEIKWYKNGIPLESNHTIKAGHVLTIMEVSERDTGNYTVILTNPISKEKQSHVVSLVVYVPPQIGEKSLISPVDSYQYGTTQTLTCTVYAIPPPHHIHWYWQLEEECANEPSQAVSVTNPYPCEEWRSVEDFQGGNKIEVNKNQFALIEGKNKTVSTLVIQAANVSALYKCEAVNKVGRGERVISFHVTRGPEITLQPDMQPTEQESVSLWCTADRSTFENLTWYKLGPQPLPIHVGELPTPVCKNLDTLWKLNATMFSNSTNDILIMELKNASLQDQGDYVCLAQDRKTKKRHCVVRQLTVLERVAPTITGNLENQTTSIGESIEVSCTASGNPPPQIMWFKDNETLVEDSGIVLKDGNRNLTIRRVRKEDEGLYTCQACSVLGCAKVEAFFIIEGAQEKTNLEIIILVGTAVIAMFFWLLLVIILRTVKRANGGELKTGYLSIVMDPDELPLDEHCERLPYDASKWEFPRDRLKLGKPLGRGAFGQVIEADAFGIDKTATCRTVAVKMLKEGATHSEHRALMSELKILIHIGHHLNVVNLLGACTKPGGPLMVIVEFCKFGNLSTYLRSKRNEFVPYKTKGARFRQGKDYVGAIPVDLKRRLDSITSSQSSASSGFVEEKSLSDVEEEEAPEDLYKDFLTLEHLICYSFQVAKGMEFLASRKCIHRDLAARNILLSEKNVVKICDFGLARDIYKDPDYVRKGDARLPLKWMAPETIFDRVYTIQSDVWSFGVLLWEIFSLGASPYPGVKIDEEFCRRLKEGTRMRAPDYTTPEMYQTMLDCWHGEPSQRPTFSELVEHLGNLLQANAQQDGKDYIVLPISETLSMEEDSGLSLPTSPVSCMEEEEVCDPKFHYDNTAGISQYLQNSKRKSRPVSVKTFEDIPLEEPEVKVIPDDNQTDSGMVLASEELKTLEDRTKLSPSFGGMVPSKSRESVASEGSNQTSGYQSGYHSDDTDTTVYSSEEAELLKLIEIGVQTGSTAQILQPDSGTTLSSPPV

UO-31 = assay: NCI-60 SRB growth inhibition, one-dose and five-dose; format: cell-based; details: Homo sapiens, UO-31
NSCLC cell lines = assay: NCI-60 SRB growth inhibition, subpanel; format: cell-based, human; details: for GI50: Homo sapiens
[4] = tested on: Prostate cancer cell lines; assay: NCI-60 SRB growth inhibition, subpanel; format: cell-based, human; details: for GI50: Homo sapiens
MOLT-4 = assay: NCI-60 SRB growth inhibition, one-dose and five-dose; format: cell-based; details: Homo sapiens
MDA-MB-468 = assay: as above; format: cell-based; details: Homo sapiens
M14 = assay: as above; format: cell-based; details: Homo sapiens
[5] = read-out: percent growth inhibition

For CC(=O)Nc1ccc(CNc2cccc(C(=O)/C=C/c3cccnc3)c2)cc1 [Compound 5b, (E)-N-(4-(((3–(3-(pyridin-3-yl)acryloyl)phenyl)amino)methyl)phenyl)acetamide], the GI50 (TK-10; TK-10) was 2.53 µM, the inhibition at 10 µM (TK-10; TK-10, read-out: percent growth inhibition) was 85.3% and the inhibition at 10 µM (OVCAR-8) was 97.1%. It also gave a GI50 (SN12C) of 2.01 µM, an inhibition at 10 µM (SN12C; [5]) of 124% and a GI50 (PC-3; PC-3) of 3.05 µM. It also gave an inhibition at 10 µM (PC-3; PC-3, read-out: percent growth inhibition) of 98.8%, a GI50 (KM12; KM12) of 2.25 µM and an inhibition at 10 µM (KM12; KM12, read-out: percent growth inhibition) of 162%. The GI50 (Colon cancer cell lines; read-out: GI50 MG-MID) was 3.26 µM, the GI50 (Colon cancer cell lines; read-out: MG-MID GI50) was 3.26 µM and the “SI (Selectivity Index)” value (Colon cancer cell lines; full panel MG-MID / Colon Cancer subpanel MG-MID) was 1.43. The GI50 (CNS cancer cell lines; read-out: GI50 MG-MID) was 7.46 µM, the GI50 (CNS cancer cell lines; read-out: MG-MID GI50) was 7.46 µM and the “SI (Selectivity Index)” value (CNS cancer cell lines; full panel MG-MID / CNS Cancer subpanel MG-MID) was 0.62. The GI50 ([1]; read-out: GI50 MG-MID) was 5.71 µM, the GI50 ([1]; read-out: MG-MID GI50) was 5.71 µM and the “SI (Selectivity Index)” value ([1]; full panel MG-MID / Ovarian Cancer subpanel MG-MID) was 0.81. It also gave a GI50 (SK-OV-3; SK-OV-3) of 13.9 µM, an inhibition at 10 µM (SK-OV-3; SK-OV-3, read-out: percent growth inhibition) of 15.2% and a GI50 (U251; U-251) of 1.9 µM. It also gave an inhibition at 10 µM (U251; U-251, read-out: percent growth inhibition) of 166%, a GI50 (UACC-257; UACC-257) of 9.35 µM and an inhibition at 10 µM (UACC-257; UACC-257, read-out: percent growth inhibition) of 120%. For the same molecule, the GI50 (NCI-H23; NCI-H23) was 3.22 µM, the inhibition at 10 µM (NCI-H23; NCI-H23, read-out: percent growth inhibition) was 148% and the GI50 (HL-60(TB); HL-60) was 2.78 µM. For the same molecule, the inhibition at 10 µM (HL-60(TB); HL-60, read-out: percent growth inhibition) was 144%, the GI50 (Renal cancer cell lines; read-out: GI50 MG-MID) was 5.2 µM and the GI50 (Renal cancer cell lines; read-out: MG-MID GI50) was 5.2 µM. For the same molecule, the “SI (Selectivity Index)” value (Renal cancer cell lines; full panel MG-MID / Renal Cancer subpanel MG-MID) was 0.89, the GI50 (Melanoma cell lines; read-out: GI50 MG-MID) was 3.99 µM and the GI50 (Melanoma cell lines; read-out: MG-MID GI50) was 3.99 µM. The “SI (Selectivity Index)” value (Melanoma cell lines; full panel MG-MID / Melanoma subpanel MG-MID) was 1.12, the GI50 at 48 h [2] was greater than 100 µM and the Safety index [3] was greater than 1. It also gave a GI50 (RPMI-8226; RPMI-8226) of 1.92 µM, an inhibition at 10 µM (RPMI-8226; RPMI-8226, read-out: percent growth inhibition) of 125% and a GI50 (SW-620; SW-620) of 1.83 µM. For the same molecule, the inhibition at 10 µM (SW-620; SW-620, read-out: percent growth inhibition) was 169%, the GI50 (MDA-MB-231/ATCC) was 2.16 µM and the GI50 (Leukaemia cell lines; read-out: GI50 MG-MID) was 2.49 µM. The GI50 (Leukaemia cell lines; read-out: MG-MID GI50) was 2.49 µM, the “SI (Selectivity Index)” value (Leukaemia cell lines; full panel MG-MID / leukaemia subpanel MG-MID) was 1.87 and the GI50 (Breast cancer cell lines; read-out: GI50 MG-MID) was 2.45 µM. For the same molecule, the GI50 (Breast cancer cell lines; read-out: MG-MID GI50) was 2.45 µM, the “SI (Selectivity Index)” value (Breast cancer cell lines; full panel MG-MID / Breast Cancer subpanel MG-MID) was 1.90 and the GI50 (SK-MEL-28; SK-MEL-28) was 1.96 µM. For the same molecule, the inhibition at 10 µM (SK-MEL-28; SK-MEL-28, read-out: percent growth inhibition) was 166%, the GI50 (EKVX) was 4.87 µM and the inhibition at 10 µM (EKVX; [5]) was 94.2%. The IC50 (Human VEGFR-2) was 1.77 ± 0.021 µM, the GI50 (UO-31) was 3.04 µM and the GI50 (NSCLC cell lines; read-out: GI50 MG-MID) was 7.24 µM. The GI50 (NSCLC cell lines; read-out: MG-MID GI50) was 7.24 µM, the “SI (Selectivity Index)” value (NSCLC cell lines; full panel MG-MID / NSCLC subpanel MG-MID) was 0.64 and the GI50 ([4]; read-out: GI50 MG-MID) was 4.1 µM. The GI50 ([4]; read-out: MG-MID GI50) was 4.1 µM, the “SI (Selectivity Index)” value ([4]; full panel MG-MID / Prostatic Cancer subpanel MG-MID) was 1.13 and the GI50 (MOLT-4; MOLT-4) was 2.88 µM. The inhibition at 10 µM (MOLT-4; MOLT-4, read-out: percent growth inhibition) was 128%, the GI50 (MDA-MB-468; MDA-MB-468) was 1.67 µM and the inhibition at 10 µM (MDA-MB-468; MDA-MB-468, read-out: percent growth inhibition) was 175%. The GI50 (M14; M14) was 2.91 µM and the inhibition at 10 µM (M14; M14, read-out: percent growth inhibition) was 141%.
